# ± gives the expanded uncertainty stated by the source.
# Columns and labels:
# [1] = Crystal
# [2] = molar enthalpy of vaporization or sublimation; details: 298.15 K, Crystal
# [3] = stuart scientific smp2 calibrated apparatus
SMILES,"Normal melting temperature [1, 3] [°C]",molar enthalpy ([2]; Unpublished results by the authors) [kJ/mol],molar enthalpy ([2]; Vacuum drop calorimetry) [kJ/mol],Normal melting temperature ([1]; DTA) [°C]
N#Cc1ccc(C(=O)O)cc1 [4-cyanobenzoic acid],220 ± 1,113 ± 2,,
N#Cc1cccc(C(=O)O)c1 [3-cyanobenzoic acid],223 ± 1,,117 ± 3,
N#Cc1ccccc1C(=O)O [2-cyanobenzoic acid],,,115 ± 3,232.6 ± 0.5

# Reference: the NIST ThermoML archive (doi:10.1016/j.jct.2008.04.004)
